In PMC10314207, “The Dynamic Intestinal Absorption Model (Diamod®), an in vitro tool to study the interconnected kinetics of gastrointestinal solubility, supersaturation, precipitation, and intestinal permeation processes of oral drugs” (International Journal of Pharmaceutics: X, 2023):
≈ marks a conversion by molar mass, not a printed value. Structures can show the parent of a compound that is named as a salt. Values belong to the compound of their own block, whether it stands above or below them.

Tests used:
[1] = Diamod® fed state: indinavir sulfate with protein meal (Ensure® plus) or carbohydrate meal, high or low bile salts
[2] = high carbohydrate meal; ref Carver et al. (1999); cited from earlier work
[3] = water intake versus no water, cited from earlier work
[4] = Diamod® fasted state: 20 mL Sporanox® solution without or with 240 mL water (stomach, duodenum, permeate); format: in vitro ADME
Procedure: The stomach vessel accepts gastric secretions (Flow rate F1) and is continuously emptied (Flow rate F2) into the second reactor vessel which simulates the lumen of the duodenum and the blood stream that accepts the permeated fraction. […] The geometry of the inner donor compartment is designed to contain biorelevant duodenal volumes (30 mL), to generate a permeation surface area of 65 cm^2 and to result in a permeation surface area to donor volume ratio of 2 cm^−1.

[5] = ref Bevernage et al., 2012; cited from earlier work
[6] = fed, carbohydrate meal, high bile salts

- decrease in average duodenal solute concentration AUC0–240min ([1]; fed high protein meal versus fasted): 34.2%
Compound: CC(C)(C)NC(=O)[C@@H]1CN(Cc2cccnc2)CCN1C[C@@H](O)C[C@@H](Cc1ccccc1)C(=O)N[C@H]1c2ccccc2C[C@H]1O [indinavir sulfate]
- increase of Tmax [2]: approximately 3 h

Compound: CC(O)COC[C@H]1O[C@@H]2O[C@H]3[C@H](O)[C@@H](O)[C@@H](O[C@H]4[C@H](O)[C@@H](O)[C@@H](O[C@H]5[C@H](O)[C@@H](O)[C@@H](O[C@H]6[C@H](O)[C@@H](O)[C@@H](O[C@H]7[C@H](O)[C@@H](O)[C@@H](O[C@H]8[C@H](O)[C@@H](O)[C@@H](O[C@H]1[C@H](O)[C@H]2O)O[C@@H]8COCC(C)O)O[C@@H]7COCC(C)O)O[C@@H]6COCC(C)O)O[C@@H]5COCC(C)O)O[C@@H]4COCC(C)O)O[C@@H]3COCC(C)O (stereo partly drawn) [2-HP-β-CD, 2-hydroxypropyl-β-cyclodextrin]
- fold decrease in duodenal AUC0-3h ([3]; in vivo duodenal aspirates, ref Berben et al. (2018c)): 2.3 fold

- additional precipitation in the duodenum upon water intake ([4]; difference of solute and total AUC reduction): 24.0%
- dissolution state during transit through the stomach ([4]; independently of water intake): completely dissolved
- decrease in AUC0-180min of permeated drug ([4]; water intake versus no water): 3.2%
- decrease in stomach solute AUC0-180min ([4]; water intake versus no water): 47%
- decrease in stomach total AUC0-180min ([4]; water intake versus no water): 45%
- decrease of duodenal AUC0-180min of solute concentration ([4]; water intake versus no water): 56.1%
- fold decrease of stomach AUC0-180min of solute itraconazole ([4]; water intake versus no water): 1.9 fold
- reduction of duodenal AUC0-180min of total concentration ([4]; water intake versus no water): 32.1%
Compound: CCC(C)n1ncn(-c2ccc(N3CCN(c4ccc(OCC5COC(Cn6cncn6)(c6ccc(Cl)cc6Cl)O5)cc4)CC3)cc2)c1=O (stereo not drawn) [itraconazole]
- reduction (times) in average dissolved gastric AUC0-3h ([3]; in vivo, ref Berben et al., 2017): 1.8 times
- solubility in FaSSGF [5]: 2.7 µM (≈ 1.91 µg/mL)

- Cmax total in the duodenum [1, 6]: 504.3 ± 3.1 µM
- Cmax total in the stomach [1, 6]: 1225.5 ± 19.9 µM
- Cmax total in the duodenum ([1]; fed, high protein meal): 514.8 ± 16.5 µM
- Cmax total in the stomach ([1]; fed, high protein meal (Ensure® Plus)): 1386.0 ± 120.11 µM
- duodenal solute concentrations ([1]; fed, high protein meal, after bile salts decreased towards fasted levels): around 100 μM
- supersaturation state in the duodenum ([1]; fed, high protein meal, period of high bile salts): not in a state of supersaturation
Compound: CC(C)(C)NC(=O)[C@@H]1CN(Cc2cccnc2)CCN1C[C@@H](O)C[C@@H](Cc1ccccc1)C(=O)N[C@H]1c2ccccc2C[C@H]1O [indinavir]
- supersaturation state in the duodenum [1, 6]: supersaturated throughout the transit through the duodenum
- supersaturation state in the duodenum ([1]; fed, carbohydrate meal, low bile salts): supersaturating throughout the transit through the duodenum
